Data on eleven compounds can be found in PubChem BioAssay (NCI).

Among the test systems are A498 renal; CCRF-CEM leukemia; HCT-116 colon; HOP-92 NSCLC; IGROV1 ovarian; MALME-3M melanoma; MOLT-4 leukemia; NCI-H23 lung; OVCAR-4 ovarian; CAKI-1 renal.
Holding throughout (test): DTP human tumour cell line panel, 48 h

Structures are written as SMILES.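 These data come from cells grown in 96-well plates and exposed to compound for 48 hours at five concentrations. GI50 = concentration required for 50% inhibition of growth. At the TGI there is no net growth.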 *1 amine or outer side, *2 acyl side, *3 side chain or, on linkers, in order; H or OH if unused. Where a SMILES comes first, the peptide text is derived from it. Bridges are numbered along the chain shown (N, C = ends). [ ]: non-standard residue; d: D form. The star is where a group is joined. X19 = O=C([C@H](N[*:1])c1ccc(O[C@H]2O[C@@H](CO)[C@@H](O)[C@@H](O)[C@H]2O[C@@H]2O[C@H](CO)[C@H](O)[C@H](O)[C@@H]2O)cc1)[*:2]; X18 = NC(=O)[C@@H](O[*:3])[C@H](N[*:1])C(=O)[*:2]; X20 = O=C([C@H](N[*:1])c1ccc(O)c(Cl)c1)[*:2]; d(aThr) = C[C@@H](O)[C@@H](N)C(=O)O; dHpg = N[C@@H](C(=O)O)c1ccc(O)cc1; X17 = CC(C)C/C=C/C=C/C(=O)*; dOrn = NCCC[C@@H](N)C(=O)O

As usually defined, the TGI is the concentration at which net growth stops. Low values mean more potent growth arrest, high ones less potent growth arrest. Take `C[C@]12CC(C#N)C(=O)C(O)=C1CC[C@@H]1C2CC[C@@]2(C)C1CC[C@@H]2O` (stereo partly specified): the TGI is 28.9 µM in the assay on A498 renal; > 100 µM in the assay with CCRF-CEM leukemia; > 100 µM with HCT-116 colon; 76.4 µM with HOP-92 NSCLC; 63.7 µM with IGROV1 ovarian; > 100 µM in the assay with MALME-3M melanoma. The TGI in the assay on MOLT-4 leukemia, in the assay on NCI-H23 lung and in the assay with OVCAR-4 ovarian was > 100 µM throughout.
By GI50 is commonly meant the concentration at which growth is held to half of that of the control. Turning to `N#C/C(=C/C=C/c1ccccc1)S(=O)c1ccccc1` (stereo unspecified), the GI50 in the assay with A498 renal is 1.61 µM; in the assay with CAKI-1 renal, 0.418 µM; in the assay with CCRF-CEM leukemia it was 0.341 µM; with HOP-92 NSCLC it was 0.319 µM; in the assay on IGROV1 ovarian it was 0.467 µM; in the assay on MALME-3M melanoma, 0.796 µM. In addition, the results for the GI50 with MOLT-4 leukemia, with NCI-H23 lung and with OVCAR-4 ovarian were 0.338 µM, 0.461 µM and 0.329 µM, respectively. In addition, the TGI in the assay on A498 renal was determined as 3.13 µM; with CAKI-1 renal, 1.55 µM; in the assay on CCRF-CEM leukemia, 1.59 µM; with HOP-92 NSCLC it was 1.03 µM; with IGROV1 ovarian, 3 µM; with MALME-3M melanoma it was 2.5 µM. In addition, the TGI in the assay on MOLT-4 leukemia is 3.64 µM; in the assay on NCI-H23 lung, 2.31 µM; in the assay with OVCAR-4 ovarian it was 2.27 µM.
With `CC(=O)O[C@H]1CCC2[C@@H]3CCC4Nc5c(cnn5-c5ccccc5)C[C@]4(C)C3CC[C@@]21C` (stereo partly specified), the concentration for total growth inhibition (TGI) is > 100 µM in the assay with A498 renal; 20.7 µM in the assay on CAKI-1 renal; 39.5 µM with CCRF-CEM leukemia; 27.5 µM with HCT-116 colon; > 100 µM in the assay with IGROV1 ovarian; 35.1 µM in the assay with MALME-3M melanoma. Also, the TGI in the assay on MOLT-4 leukemia turned out to be 33.7 µM; with NCI-H23 lung it was 21.2 µM; with OVCAR-4 ovarian, 71.3 µM.
For the compound `Cc1ccc(NC(=O)CC/C(CC(=O)c2ccc(Cl)cc2)=N\NC(=O)C(=O)NN)cc1C`, the TGI in the assay on A498 renal, in the assay on CAKI-1 renal, in the assay on CCRF-CEM leukemia, with HCT-116 colon, in the assay with IGROV1 ovarian and with MALME-3M melanoma was > 100 µM throughout. Moreover, the TGI in the assay on MOLT-4 leukemia, with NCI-H23 lung and in the assay on OVCAR-4 ovarian was > 100 µM each time.
Consider `N#Cc1nn(C2OC(COC(=O)c3ccccc3)C(OC(=O)c3ccccc3)C2OC(=O)c2ccccc2)c2nc[nH]c(=O)c12` (stereo unspecified), for which the TGI in the assay on A498 renal is 47.2 µM; with CAKI-1 renal, > 100 µM; with CCRF-CEM leukemia, 84.7 µM; in the assay with HCT-116 colon, > 100 µM; in the assay on IGROV1 ovarian it was > 100 µM; in the assay with MALME-3M melanoma it was 90.4 µM. For the same compound, the TGI was 95.4 µM in the assay on MOLT-4 leukemia, > 100 µM in the assay with NCI-H23 lung and > 100 µM in the assay with OVCAR-4 ovarian.
`CC1=C(/C=C/C2=CC(=C\C(=O)O)/CC(C3=C(C)CCCC3(C)C)C2)C(C)(C)CCC1` (stereo unspecified): the TGI with A498 renal turned out to be 28.7 µM; in the assay on CAKI-1 renal it was 29.5 µM; in the assay on HCT-116 colon, 37 µM; in the assay on HOP-92 NSCLC, 23.7 µM; in the assay with IGROV1 ovarian, 26.4 µM; in the assay on MALME-3M melanoma, 34.1 µM. Also, the TGI with MOLT-4 leukemia was 21.7 µM; with NCI-H23 lung, 27.6 µM; in the assay with OVCAR-4 ovarian it was 28.1 µM.
As to `CCCCNC(=O)Oc1ccc2c(=O)c3sc4c(=O)c5ccccc5c(=O)c4c3c(=O)c2c1`, the GI50 was 1.04 µM with A498 renal; 1.24 µM with CAKI-1 renal; 2 µM in the assay with CCRF-CEM leukemia; 0.334 µM in the assay with HCT-116 colon; 2.23 µM in the assay with IGROV1 ovarian; 0.117 µM with MALME-3M melanoma. Further, the values for the GI50 with MOLT-4 leukemia, with NCI-H23 lung and in the assay on OVCAR-4 ovarian were 2.17 µM, 0.188 µM and 0.977 µM, respectively. Also, the TGI in the assay on A498 renal amounted to 2.22 µM; in the assay with CAKI-1 renal, 2.86 µM; in the assay on CCRF-CEM leukemia, 6.83 µM; in the assay with HCT-116 colon, 1.76 µM; with IGROV1 ovarian it was 6.72 µM; in the assay on MALME-3M melanoma it was 0.273 µM. The TGI was 6.57 µM with MOLT-4 leukemia, 0.583 µM in the assay on NCI-H23 lung and 2.15 µM in the assay with OVCAR-4 ovarian.
As to `CCOC(=O)CNC1C(NC(C)=O)C(OC)OC2COC(c3ccccc3)OC21` (stereo unspecified), the concentration for total growth inhibition (TGI) in the assay on A498 renal, in the assay with CAKI-1 renal, with CCRF-CEM leukemia, in the assay with HCT-116 colon, with HOP-92 NSCLC and in the assay with IGROV1 ovarian was > 100 µM each time. Moreover, the TGI with MALME-3M melanoma, with NCI-H23 lung and with OVCAR-4 ovarian was > 100 µM in each case.
Regarding `CC(C)C/C=C/C=C/C(=O)N[C@@H](CC(N)=O)C(=O)N[C@@H]1C(=O)N[C@H](c2ccc(O)cc2)C(=O)N[C@H](CCCN)C(=O)N[C@H]([C@@H](C)O)C(=O)N[C@H](c2ccc(O)cc2)C(=O)N[C@H](c2ccc(O)cc2)C(=O)N[C@H]([C@H](C)O)C(=O)N[C@H](Cc2ccccc2)C(=O)N[C@H](CCCN)C(=O)N[C@H](c2ccc(O[C@H]3O[C@@H](CO)[C@@H](O)[C@@H](O)[C@H]3O[C@@H]3O[C@H](CO)[C@H](O)[C@H](O)[C@@H]3O)cc2)C(=O)N[C@H]([C@H](C)O)C(=O)N[C@H](c2ccc(O)cc2)C(=O)NCC(=O)N[C@H](CC(C)C)C(=O)N[C@H](C)C(=O)N[C@H](c2ccc(O)c(Cl)c2)C(=O)O[C@@H]1C(N)=O` (X17-N[X18][dHpg][dOrn][d(aThr)][dHpg][dHpg][dT][dF][dOrn][X19][dT][dHpg]G[dL][dA][X20]; ester 2-C), the GI50 in the assay with A498 renal is 80.9 µM; in the assay on CAKI-1 renal, > 100 µM; in the assay with HCT-116 colon, 32.9 µM; in the assay on HOP-92 NSCLC, 80 µM; in the assay with IGROV1 ovarian it was > 100 µM; in the assay with MALME-3M melanoma, 29.7 µM. The GI50 in the assay on MOLT-4 leukemia is 31.7 µM; with NCI-H23 lung, 25.8 µM; in the assay with OVCAR-4 ovarian, 39.2 µM. Besides, the TGI with A498 renal is > 100 µM; in the assay on CAKI-1 renal it was > 100 µM; with HCT-116 colon, > 100 µM; in the assay with HOP-92 NSCLC, > 100 µM; in the assay with IGROV1 ovarian, > 100 µM; in the assay with MALME-3M melanoma it was 65.5 µM. The TGI was > 100 µM in the assay with MOLT-4 leukemia, 88.9 µM in the assay on NCI-H23 lung and > 100 µM with OVCAR-4 ovarian.
`COc1cc2ccc(/C(C)=N/OC(C)=O)cc2cc1OC`: the TGI was 76.9 µM with A498 renal; > 100 µM in the assay on CCRF-CEM leukemia; > 100 µM with HCT-116 colon; > 100 µM with HOP-92 NSCLC; > 100 µM in the assay with IGROV1 ovarian; > 100 µM in the assay on MALME-3M melanoma. Moreover, the TGI with MOLT-4 leukemia, in the assay on NCI-H23 lung and in the assay with OVCAR-4 ovarian was > 100 µM throughout.
For the compound `O=C(O)CN(c1ccccc1)S(=O)(=O)c1ccc(Cl)cc1`, the TGI in the assay on A498 renal, with CAKI-1 renal, with CCRF-CEM leukemia, with HOP-92 NSCLC, with IGROV1 ovarian and in the assay on MALME-3M melanoma was > 100 µM throughout. For the same compound, the TGI in the assay on MOLT-4 leukemia, in the assay with NCI-H23 lung and with OVCAR-4 ovarian was > 100 µM each time.
